The values below come from patent publication US8729064B2, “Heteroaromatic and aromatic piperazinyl azetidinyl amides as monoacylglycerol lipase inhibitors” (Janssen Pharmaceutica, NV, priority 2009, dated 2014).

The first experiment deals with T1, MGL activity in HeLa cell homogenate (Homo sapiens, UniProt Q99685).
T1 construct: HeLa cells were homogenated with a Polytron; endogenous in cells; host or cells: HeLa cell homogenate
T1 sequence (Q99685 1-303): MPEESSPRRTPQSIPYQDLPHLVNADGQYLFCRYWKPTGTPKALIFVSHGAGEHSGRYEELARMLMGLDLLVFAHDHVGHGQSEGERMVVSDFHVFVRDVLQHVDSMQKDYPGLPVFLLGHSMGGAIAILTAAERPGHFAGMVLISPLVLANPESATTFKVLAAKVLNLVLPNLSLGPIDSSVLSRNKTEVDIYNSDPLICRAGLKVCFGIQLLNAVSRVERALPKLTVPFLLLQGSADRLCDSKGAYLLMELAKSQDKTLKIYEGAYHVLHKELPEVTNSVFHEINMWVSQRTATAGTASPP
In words: 2-AG Accumulation Assay in HeLa cell homogenate. Particulars: compound 1 μM, accumulated 2-AG relative to MAFP 2-AG x100. The format is biochemical.
As for `CC(C)(C)c1nc2ccc(C(=O)N3CC(N4CCN(c5ccccn5)CC4)C3)cc2o1` [Compound 19, (2-tert-Butyl-benzooxazol-6-yl)-[3-(4-pyridin-2-yl-piperazin-1-yl)-azetidin-1-yl]-methanone], the “Example 4 % MAFP @ 1 μM” value is given as 19.9 % MAFP.
On the same count and under the same terms, then `O=C(c1ccc2nc(C3CCCCC3)oc2c1)N1CC(N2CCN(c3ccccn3)CC2)C1` [Compound 2, (2-Cyclohexyl-benzooxazol-6-yl)-[3-(4-pyridin-2-yl-piperazin-1-yl)-azetidin-1-yl]-methanone], with 39.7 % MAFP; and `O=C(c1cccc2nc(-c3ccc(F)cc3)oc12)N1CC(N2CCN(c3ccccn3)CC2)C1` [Compound 6, [2-(4-Fluoro-phenyl)-benzooxazol-7-yl]-[3-(4-pyridin-2-yl-piperazin-1-yl)-azetidin-1-yl]-methanone], with 30.6 % MAFP; and `O=C(c1cccc2nc(-c3cccc(F)c3)oc12)N1CC(N2CCN(c3ccccn3)CC2)C1` [Compound 3, [2-(3-Fluoro-phenyl)-benzooxazol-7-yl]-[3-(4-pyridin-2-yl-piperazin-1-yl)-azetidin-1-yl]-methanone], with 45.7 % MAFP.

The same experiment, now with this note: compound 10 μM, accumulated 2-AG relative to MAFP 2-AG x100.
With `CC(C)(C)c1nc2ccc(C(=O)N3CC(N4CCN(c5ccccn5)CC4)C3)cc2o1` [Compound 19, (2-tert-Butyl-benzooxazol-6-yl)-[3-(4-pyridin-2-yl-piperazin-1-yl)-azetidin-1-yl]-methanone], the “Example 4 % MAFP @ 10 μM” value amounted to 47.3 % MAFP.
`COc1ccccc1Cc1nc2cc(C(=O)N3CC(N4CCN(c5ccccn5)CC4)C3)ccc2o1` [Compound 15, [2-(2-Methoxy-benzyl)-benzooxazol-5-yl]-[3-(4-pyridin-2-yl-piperazin-1-yl)-azetidin-1-yl]-methanone]: the “Example 4 % MAFP @ 10 μM” value was determined as 57.6 % MAFP.
As for `CC(C)Cc1cc2cc(C(=O)N3CC(N4CCN(c5ccccn5)CC4)C3)ccc2n1CC(C)C` [Compound 8, (1,2-Diisobutyl-1H-indol-5-yl)-[3-(4-pyridin-2-yl-piperazin-1-yl)-azetidin-1-yl]-methanone], the “Example 4 % MAFP @ 10 μM” value was 72.9 % MAFP.
Still for that read-out and setting: with `COc1ccccc1N1CCN(C2CN(C(=O)c3ccc4c(c3)cc(COc3ccccc3)n4CC(C)(C)C)C2)CC1` [Compound 22, [1-(2,2-Dimethyl-propyl)-2-phenoxymethyl-1H-indol-5-yl]-{3-[4-(2-methoxy-phenyl)-piperazin-1-yl]-azetidin-1-yl}-methanone] the figure was 50.1 % MAFP.
On the same count and under the same terms, with `COc1ccc(-c2nc3cccc(C(=O)N4CC(N5CCN(c6ccccn6)CC5)C4)c3o2)cc1` [Compound 7, [2-(4-Methoxy-phenyl)-benzooxazol-7-yl]-[3-(4-pyridin-2-yl-piperazin-1-yl)-azetidin-1-yl]-methanone] the figure was 79.5 % MAFP; with `CC(C)(C)Cn1c(-c2ccccc2)cc2cc(C(=O)N3CC(N4CCN(c5ccc(F)cc5)CC4)C3)ccc21` [Compound 25, [1-(2,2-Dimethyl-propyl)-2-phenyl-1H-indol-5-yl]-{3-[4-(4-fluoro-phenyl)-piperazin-1-yl]-azetidin-1-yl}-methanone], 65.8 % MAFP.
In the case of `COc1cccc(-c2nc3cc(C(=O)N4CC(N5CCN(c6ccccn6)CC5)C4)ccc3o2)c1` [Compound 20, [2-(3-Methoxy-phenyl)-benzooxazol-5-yl]-[3-(4-pyridin-2-yl-piperazin-1-yl)-azetidin-1-yl]-methanone], the “Example 4 % MAFP @ 10 μM” value was 86.9 % MAFP.
Same read-out and setting: with `O=C(c1ccc2c(c1)cc(COc1ccccc1)n2CC1CCCCC1)N1CC(N2CCN(c3ccccn3)CC2)C1` [Compound 11, (1-Cyclohexylmethyl-2-phenoxymethyl-1H-indol-5-yl)-[3-(4-pyridin-2-yl-piperazin-1-yl)-azetidin-1-yl]-methanone] the figure was 160.1 % MAFP; with `O=C(c1ccc2nc(C3CCCCC3)oc2c1)N1CC(N2CCN(c3ccccn3)CC2)C1` [Compound 2, (2-Cyclohexyl-benzooxazol-6-yl)-[3-(4-pyridin-2-yl-piperazin-1-yl)-azetidin-1-yl]-methanone], 87.6 % MAFP.
As to `COc1ccccc1N1CCN(C2CN(C(=O)c3ccc4c(c3)cc(COc3ccccc3)n4CC(C)C)C2)CC1` [Compound 17, (1-Isobutyl-2-phenoxymethyl-1H-indol-5-yl)-{3-[4-(2-methoxy-phenyl)-piperazin-1-yl]-azetidin-1-yl}-methanone], the “Example 4 % MAFP @ 10 μM” value came to 25.9 % MAFP.
As to `COc1ccccc1N1CCN(C2CN(C(=O)c3ccc4c(c3)cc(Cc3ccccc3)n4CC3CCCCC3)C2)CC1` [Compound 23, (2-Benzyl-1-cyclohexylmethyl-1H-indol-5-yl)-{3-[4-(2-methoxy-phenyl)-piperazin-1-yl]-azetidin-1-yl}-methanone], the “Example 4 % MAFP @ 10 μM” value came out at 84.5 % MAFP.
For the molecule `CC(C)Cn1c(-c2ccccc2)cc2cc(C(=O)N3CC(N4CCN(c5ccccn5)CC4)C3)ccc21` [Compound 13, (1-Isobutyl-2-phenyl-1H-indol-5-yl)-[3-(4-pyridin-2-yl-piperazin-1-yl)-azetidin-1-yl]-methanone], the “Example 4 % MAFP @ 10 μM” value amounted to 93.5 % MAFP.
As for `CCCc1cc2cc(C(=O)N3CC(N4CCN(c5ccccn5)CC4)C3)ccc2n1CC1CCCCC1` [Compound 28, (1-Cyclohexylmethyl-2-propyl-1H-indol-5-yl)-[3-(4-pyridin-2-yl-piperazin-1-yl)-azetidin-1-yl]-methanone], the “Example 4 % MAFP @ 10 μM” value is 77.0 % MAFP.
On the same count and under the same terms, then `O=C(c1cccc2nc(-c3ccc(F)cc3)oc12)N1CC(N2CCN(c3ccccn3)CC2)C1` [Compound 6, [2-(4-Fluoro-phenyl)-benzooxazol-7-yl]-[3-(4-pyridin-2-yl-piperazin-1-yl)-azetidin-1-yl]-methanone], with 68.8 % MAFP; and `O=C(c1cccc2nc(-c3cccc(F)c3)oc12)N1CC(N2CCN(c3ccccn3)CC2)C1` [Compound 3, [2-(3-Fluoro-phenyl)-benzooxazol-7-yl]-[3-(4-pyridin-2-yl-piperazin-1-yl)-azetidin-1-yl]-methanone], with 82.9 % MAFP; and `COCC(=O)c1c(-c2ccc(C)cc2)[nH]c2ccc(C(=O)N3CC(N4CCN(c5ccccn5)CC4)C3)cc12` [Compound 27, 2-Methoxy-1-{5-[3-(4-pyridin-2-yl-piperazin-1-yl)-azetidine-1-carbonyl]-2-p-tolyl-1H-indol-3-yl}-ethanone], with 76.3 % MAFP.
Still for that read-out and setting: then `CC(C)(C)Cn1c(C(C)(C)C)cc2cc(C(=O)N3CC(N4CCN(c5ccccn5)CC4)C3)ccc21` [Compound 26, [2-tert-Butyl-1-(2,2-dimethyl-propyl)-1H-indol-5-yl]-[3-(4-pyridin-2-yl-piperazin-1-yl)-azetidin-1-yl]-methanone], with 37.0 % MAFP.
Consider `CC(C)Cn1c(COc2ccccc2)cc2cc(C(=O)N3CC(N4CCN(c5ccccn5)CC4)C3)ccc21` [Compound 9, (1-Isobutyl-2-phenoxymethyl-1H-indol-5-yl)-[3-(4-pyridin-2-yl-piperazin-1-yl)-azetidin-1-yl]-methanone], for which the “Example 4 % MAFP @ 10 μM” value came out at 67.8 % MAFP.
On the same count and under the same terms, with `O=C(c1ccc2[nH]c(CC3CCCCC3)cc2c1)N1CC(N2CCN(c3ccccn3)CC2)C1` [Compound 14, (2-Cyclohexylmethyl-1H-indol-5-yl)-[3-(4-pyridin-2-yl-piperazin-1-yl)-azetidin-1-yl]-methanone] the figure was 53.7 % MAFP.
Consider `COc1ccccc1N1CCN(C2CN(C(=O)c3ccc4c(c3)cc(-c3ccccc3)n4CC(C)(C)C)C2)CC1` [Compound 24, [1-(2,2-Dimethyl-propyl)-2-phenyl-1H-indol-5-yl]-{3-[4-(2-methoxy-phenyl)-piperazin-1-yl]-azetidin-1-yl}-methanone], for which the “Example 4 % MAFP @ 10 μM” value is reported as 58.8 % MAFP.
The same measure, in the same setting: with `O=C(c1ccc2c(c1)cc(Cc1ccccc1)n2CC1CCCCC1)N1CC(N2CCN(c3ccccn3)CC2)C1` [Compound 18, (2-Benzyl-1-cyclohexylmethyl-1H-indol-5-yl)-[3-(4-pyridin-2-yl-piperazin-1-yl)-azetidin-1-yl]-methanone] the figure was 134.6 % MAFP; with `COc1ccccc1N1CCN(C2CN(C(=O)c3ccc4c(c3)cc(Cc3ccccc3)n4CC(C)C)C2)CC1` [Compound 21, (2-Benzyl-1-isobutyl-1H-indol-5-yl)-{3-[4-(2-methoxy-phenyl)-piperazin-1-yl]-azetidin-1-yl}-methanone], 29.2 % MAFP.
The same measure, in the same setting: then `CC(C)(C)Cn1c(-c2ccccc2)cc2cc(C(=O)N3CC(N4CCN(c5ccccn5)CC4)C3)ccc21` [Compound 10, [1-(2,2-Dimethyl-propyl)-2-phenyl-1H-indol-5-yl]-[3-(4-pyridin-2-yl-piperazin-1-yl)-azetidin-1-yl]-methanone], with 160.1 % MAFP.
Take `Cn1c(CC2CCCC2)cc2cc(C(=O)N3CC(N4CCN(c5ccccn5)CC4)C3)ccc21` [Compound 12, (2-Cyclopentylmethyl-1-methyl-1H-indol-5-yl)-[3-(4-pyridin-2-yl-piperazin-1-yl)-azetidin-1-yl]-methanone]: the “Example 4 % MAFP @ 10 μM” value is 142.0 % MAFP.
